From patent US6605424B1, “Method of detecting inhibitors of agonist-specific desensitization” (Duke University, priority 1989, dated 2003)
“And” between values parts separate entries of the source, which are not always exact repeats. Equal values may be shown once.

Columns and labels:
[1] = biological target: T1, βAR kinase (Bos taurus, UniProt P21146); assay: βAR kinase inhibition with the βAR as substrate (Example I, data not shown); assay type: biochemical, bovine
T1 construct: βAR kinase was purified from bovine cerebral cortex; from tissue; host or cells: bovine cerebral cortex
T1 sequence (P21146 1-689): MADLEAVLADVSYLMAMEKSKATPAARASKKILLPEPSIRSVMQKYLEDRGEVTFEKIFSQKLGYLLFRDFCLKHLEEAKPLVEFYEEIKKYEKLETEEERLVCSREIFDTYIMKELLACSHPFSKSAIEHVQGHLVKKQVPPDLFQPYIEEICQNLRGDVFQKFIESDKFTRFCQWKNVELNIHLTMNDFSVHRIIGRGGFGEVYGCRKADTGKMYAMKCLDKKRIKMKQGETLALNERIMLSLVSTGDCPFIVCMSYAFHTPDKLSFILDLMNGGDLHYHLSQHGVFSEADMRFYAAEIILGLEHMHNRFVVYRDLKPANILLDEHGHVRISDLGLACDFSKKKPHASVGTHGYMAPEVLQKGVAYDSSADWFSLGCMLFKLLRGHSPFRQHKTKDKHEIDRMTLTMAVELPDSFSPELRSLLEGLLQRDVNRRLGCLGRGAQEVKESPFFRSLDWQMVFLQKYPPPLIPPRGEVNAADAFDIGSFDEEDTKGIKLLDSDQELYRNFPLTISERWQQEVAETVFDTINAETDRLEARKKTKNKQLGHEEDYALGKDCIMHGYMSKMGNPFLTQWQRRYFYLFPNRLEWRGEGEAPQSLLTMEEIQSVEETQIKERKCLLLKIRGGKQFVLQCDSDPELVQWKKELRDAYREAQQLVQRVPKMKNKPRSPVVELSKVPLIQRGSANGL
Excerpt: βAR kinase phosphorylates the β2AR, the α2-adrenergic receptor, and rhodopsin in a stimulus-dependent fashion. Rhodopsin was utilized as the substrate in these experiments because of its ease of isolation. However, the inhibitory effects of polyanions observed with βAR kinase-catalyzed phosphorylation of rhodopsin have also been observed using reconstituted β2AR as the substrate.

[2] = test system: β2ARs in permeabilized A431 cells; assay: Desensitization of β2ARs in permeabilized A431 cells; assay type: cell-based, human
[3] = biological target: T1, βAR kinase; assay: Phosphorylation of purified reconstituted β2ARs by purified βAR kinase (Example II); assay type: biochemical, bovine; conditions: for IC50: 50 μM (−)-isoproterenol, read-out: IC50, inhibition of phosphorylation of reconstituted β2ARs by βAR kinase
[4] = biological target: T1, βAR kinase; assay: Phosphorylation of rhodopsin (urea-treated rod outer segments) by βAR kinase; assay type: biochemical, bovine
Procedure: βAR kinase was purified from bovine cerebral cortex by modification of procedure of Benovic et al (J. Biol. Chem. (1987) 262:9026-9032). Briefly, 250 g of bovine cerebral cortex were homogenized with a Brinkmann tissue disrupter and centrifuged (40,000×g, 30 min). The supernatant was then precipitated with 13-26% ammonium sulfate. This material was initially chromatographed on a Ultrogel AcA34 column equilibrated with 5 mM Tris-HCl, pH 7.5, 2 mM EDTA, 10 μg/ml leupeptin, 5 μg/ml pepstatin, 10 μg/ml benzamidine, 0.2 mM phenylmethylsulfonyl fluoride (buffer A). The peak activity was diluted with an equal volume of buffer A containing 0.04% Triton X-100 before being applied to a DEAE-Sephacel column. Elution was accomplished with a 0-80 mM NaCl gradient in buffer A containing 0.02% Triton X-100. The peak activity was then applied to a CM-Fractogel column and eluted with a 0-100 mM NaCl gradient in buffer A containing 0.02% Triton X-100. The purified kinase is stable at 4° C. for several months. For these studies the βAR kinase preparations were >75% pure.
Rod outer segments were prepared from bovine retinas by stepwise sucrose gradient centrifugation (Wilden et al Biochemistry (1982) 21:3014-3022). Rhodopsin kinase-free rod outer segments were prepared by treatment with 5 M urea (Shichi et al J. Biol. Chem. (1978) 253:7040-7046) and consisted of ˜95% rhodopsin, as assessed by Coomassie Blue staining of sodium dodecyl sulfate-polyacrylamide gels.
Urea-treated rod outer segments were phosphorylated with βAR kinase as follows. Urea-treated rod outer segments (˜4 μg of rhodopsin) were incubated with βAR kinase (˜0.1 μg) for 10-15 min at 30° C. in the presence of 40 mM Tris-HCl, pH 7.4, 10 mM NaCl, 5 mM MgCl2, 1.5 mM EDTA, and 65 μM ATP (˜1 cpm/fmol) (total reaction volume was 40 μl). Reactions were stopped by the addition of 40 μl of sodium dodecyl sulfate sample buffer (see below) followed by sodium dodecyl sulfate-polyacrylamide gel electrophoresis. After autoradiography, the phosphorylated rhodopsin bands were excised and counted.
Sodium dodecyl sulfate-polyacrylamide gel electrophoresis was performed by the method of Laemmli (Nature (1970) 227:680-685) using 10% homogeneous polyacrylamide slab gels. Sample buffer contained 8% sodium dodecyl sulfate, 10% glycerol, 5% 3-mercaptoethanol, 25 mM Tris-HCl, pH 6.5, and 0.003% bromphenol blue. After electrophoresis, gels were dried with a Bio-Rad gel dryer prior to autoradiography.

heparin
IC50 [1]: ~0.03 µM
Inhibition of Desensitization, % ([2]; 0.1 μM): 102 ± 16%
effect on time course of desensitization ([2]; 100 nM heparin, 1 μM (−)-isoproterenol): almost completely abolished
IC50 ([2]; 1 μM (−)-isoproterenol, 10 min, 37° C., read-out: IC50, inhibition of desensitization): 0.021 µM and 0.02 µM
extent of inhibition of desensitization ([2]; at concentrations above 100 nM): virtually complete
Inhibition of βAR kinase, % ([3]; 0.1 μM): 96 ± 1%
IC50 ([3]; listed as heparin): 0.0061 ± 0.002 µM
IC50 [3]: 0.006 µM
extent of inhibition of β2AR phosphorylation ([3]; at 30-100 nM): almost complete inhibition
Hill coefficient of inhibition ([4]; data of FIG. 1): ~2
IC50 ([4]; read-out: IC50 (concentration of compound which gave 50% inhibition of βAR kinase), rhodopsin as substrate): 0.15 µM
IC50 (concentration of compound which gave 50% inhibition of βAR kinase) ([4]; rhodopsin as substrate, mean ± S.E.): 0.77 ± 0.10 µg/mL
